Experiments:
Type in all cases: biochemical
[1] = molecular target: T1, Jnk3 (Homo sapiens, UniProt P53779); assay: AlphaScreen kinase assay, Jnk3; details: read-out: IC50, activity toward kinase Jnk3
T1 construct: purchased Upstate Biotechnology

[2] = molecular target: T2, Kdr (Homo sapiens, UniProt P35968); assay: Z'-Lyte FRET kinase assay (Invitrogen), Kdr; details: read-out: IC50, activity toward kinase Kdr
T2 construct: purchased Invitrogen (assay run by Invitrogen)

[3] = molecular target: T3, Kit (Homo sapiens, UniProt P10721); assay: AlphaScreen kinase assay, Kit; details: read-out: IC50, activity toward kinase Kit
T3 construct: P1332.N6 BI PTP KIT M552-K948-X COD; His6 (N); made in house; host or cells: E. coli (PTP1B co-expressed)
T3 sequence (P10721 with tags, fused parts or gaps): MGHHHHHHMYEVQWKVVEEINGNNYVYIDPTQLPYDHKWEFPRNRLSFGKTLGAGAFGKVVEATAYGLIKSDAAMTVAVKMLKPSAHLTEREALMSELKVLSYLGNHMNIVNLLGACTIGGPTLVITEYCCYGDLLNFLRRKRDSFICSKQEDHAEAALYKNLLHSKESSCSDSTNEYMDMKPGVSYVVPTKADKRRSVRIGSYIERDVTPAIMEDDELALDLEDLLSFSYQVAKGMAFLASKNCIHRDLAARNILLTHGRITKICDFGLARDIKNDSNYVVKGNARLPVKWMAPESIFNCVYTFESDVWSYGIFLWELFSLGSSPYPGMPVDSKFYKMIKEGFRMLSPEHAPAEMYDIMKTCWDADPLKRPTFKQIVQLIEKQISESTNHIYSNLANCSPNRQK

[4] = molecular target: T4, Stk6 (Homo sapiens, UniProt O14965); assay: Z'-Lyte FRET kinase assay (Invitrogen), Stk6; details: read-out: IC50, activity toward kinase Stk6
T4 construct: purchased Invitrogen (Carlsbad, Calif.), screening service
T4 sequence (O14965 1-403): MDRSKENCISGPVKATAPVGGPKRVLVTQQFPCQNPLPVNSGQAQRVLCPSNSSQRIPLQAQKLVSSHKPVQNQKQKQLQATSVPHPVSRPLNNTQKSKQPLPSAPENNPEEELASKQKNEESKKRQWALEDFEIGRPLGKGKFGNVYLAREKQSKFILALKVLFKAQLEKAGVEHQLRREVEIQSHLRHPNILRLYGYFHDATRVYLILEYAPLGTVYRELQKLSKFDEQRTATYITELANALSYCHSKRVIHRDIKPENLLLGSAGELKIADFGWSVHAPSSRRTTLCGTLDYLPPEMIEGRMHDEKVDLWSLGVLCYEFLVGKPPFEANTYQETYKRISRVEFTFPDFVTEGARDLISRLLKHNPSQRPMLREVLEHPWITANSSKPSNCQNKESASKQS

[5] = molecular target: MAP4K4 (Homo sapiens, UniProt O95819); assay: AlphaScreen kinase assay, MAP4K4; details: read-out: IC50, activity toward kinase MAP4K4
Sequence of MAP4K4 (O95819 whole entry): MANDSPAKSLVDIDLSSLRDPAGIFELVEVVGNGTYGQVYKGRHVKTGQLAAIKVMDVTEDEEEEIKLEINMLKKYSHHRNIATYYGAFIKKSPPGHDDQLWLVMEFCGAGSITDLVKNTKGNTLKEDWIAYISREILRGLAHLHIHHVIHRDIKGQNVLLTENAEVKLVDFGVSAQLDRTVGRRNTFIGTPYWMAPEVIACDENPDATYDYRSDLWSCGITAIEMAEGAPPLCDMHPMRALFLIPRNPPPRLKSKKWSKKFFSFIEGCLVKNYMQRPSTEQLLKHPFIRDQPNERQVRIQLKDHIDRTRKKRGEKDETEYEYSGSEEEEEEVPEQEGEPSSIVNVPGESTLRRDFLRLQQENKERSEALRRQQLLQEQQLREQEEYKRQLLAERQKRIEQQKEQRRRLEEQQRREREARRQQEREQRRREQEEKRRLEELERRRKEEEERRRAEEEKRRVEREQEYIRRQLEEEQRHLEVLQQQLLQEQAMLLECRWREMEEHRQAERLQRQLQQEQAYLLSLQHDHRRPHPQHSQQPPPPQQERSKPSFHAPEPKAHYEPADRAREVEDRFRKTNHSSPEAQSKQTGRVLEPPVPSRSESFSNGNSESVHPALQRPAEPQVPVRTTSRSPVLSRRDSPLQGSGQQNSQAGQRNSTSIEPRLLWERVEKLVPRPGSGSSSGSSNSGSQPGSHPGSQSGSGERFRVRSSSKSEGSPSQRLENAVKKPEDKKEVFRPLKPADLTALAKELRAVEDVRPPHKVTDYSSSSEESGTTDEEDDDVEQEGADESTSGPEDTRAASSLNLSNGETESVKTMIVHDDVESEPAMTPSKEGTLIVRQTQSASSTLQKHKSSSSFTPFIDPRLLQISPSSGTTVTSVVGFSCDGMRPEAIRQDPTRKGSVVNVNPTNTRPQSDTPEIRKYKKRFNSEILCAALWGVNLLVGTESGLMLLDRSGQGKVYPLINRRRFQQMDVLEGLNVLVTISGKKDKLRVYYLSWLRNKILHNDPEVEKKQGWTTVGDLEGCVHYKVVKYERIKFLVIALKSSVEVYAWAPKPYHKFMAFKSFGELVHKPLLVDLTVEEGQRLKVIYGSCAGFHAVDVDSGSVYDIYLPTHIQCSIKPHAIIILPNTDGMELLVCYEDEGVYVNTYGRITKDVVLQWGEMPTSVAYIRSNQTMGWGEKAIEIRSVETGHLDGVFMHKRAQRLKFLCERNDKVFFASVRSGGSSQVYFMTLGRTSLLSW

[6] = molecular target: T5, Fak (Homo sapiens, UniProt Q05397); assay: AlphaScreen kinase assay, Fak; details: read-out: IC50, activity toward kinase Fak
T5 construct: P1358.pFastBacHtb FAK S411-Q686-X; His6 with pFastBacHTb leader (TEV site) (N); made in house; host or cells: Sf9 (baculovirus)
Text: AlphaScreen assay was used to screen additional kinases. The assay is similarly dependent on the phosphorylation of a peptide substrate. In this assay, an antibody that recognizes phosphorylated substrate is bound to an acceptor bead. The peptide substrate is attached to biotin, which binds to a donor head that contains streptavidin. Thus phosphorylated substrate is bound by antibody and streptavidin, bringing the donor and acceptor heads into close proximity when kinase is not inhibited. The donor produces singlet oxygen which results in emission from the acceptor when they are in close proximity. Conversely, when kinase is inhibited, the donor and acceptor beads are not associated and the emission from the acceptor is reduced.
AlphaScreen assays were done using compounds dissolved in DMSO to a concentration of 20 mM. The compounds were diluted accordingly to the desired final concentrations in each sample well, using 1:3 serial dilution for a total of 8 concentration points. Plates were prepared such that each kinase reaction is 20 μl in 1× kinase buffer, 5% DMSO and 10 μM ATP. After incubation of the kinase reaction for 1 hour at room temperature, 5 μl of donor beads in stop buffer (50 mM EDTA in 1× kinase buffer) was added, the sample was mixed and incubated for 20 minutes at room temperature before adding 5 μl of acceptor beads in stop buffer. The samples were incubated for 60 minutes at room temperature and the signal per well was read on AlphaQuest reader.

[7] = molecular target: T6, FGFR1 (Homo sapiens, UniProt P11362, C488A/C584S); assay: AlphaScreen kinase assay, FGFR1; details: read-out: IC50, activity toward kinase FGFR
T6 construct: P1351.pET N6 BI-PTP FGFR A458-E765-X C488A, C584S; made in house; host or cells: E. coli (PTP1B co-expressed)
T6 sequence (P11362 458-765 C488A/C584S): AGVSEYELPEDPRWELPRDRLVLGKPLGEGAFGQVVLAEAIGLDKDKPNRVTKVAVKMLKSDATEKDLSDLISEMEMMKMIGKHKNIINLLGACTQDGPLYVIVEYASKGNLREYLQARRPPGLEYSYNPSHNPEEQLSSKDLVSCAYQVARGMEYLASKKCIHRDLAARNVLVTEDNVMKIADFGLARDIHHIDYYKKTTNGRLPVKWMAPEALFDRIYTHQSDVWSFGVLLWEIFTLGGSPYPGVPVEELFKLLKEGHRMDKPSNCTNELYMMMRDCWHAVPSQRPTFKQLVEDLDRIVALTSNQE

[8] = molecular target: T7, Fms (Homo sapiens, UniProt P07333); assay: AlphaScreen kinase assay, Fms; details: read-out: IC50, activity toward kinase Fms
T7 construct: purchased Upstate Biotechnology

[9] = molecular target: T8, B-Raf V600E (Homo sapiens, UniProt P15056, V600E); assay: AlphaScreen kinase assay, B-Raf V600E; details: read-out: IC50, activity toward kinase B-Raf V600E
T8 construct: P4254. pFastBacBD-CDC37 BRAF D437-K722-X, V600E; His6 with pFastBac HT leader (TEV site) (N); made in house; host or cells: Sf9 (baculovirus; chaperone CDC37 co-expressed)

[10] = molecular target: T9, Flt1 (Homo sapiens, UniProt P17948); assay: AlphaScreen kinase assay, Flt1; details: read-out: IC50, activity toward kinase Flt1
T9 construct: P1826.pETN6 BI-PTP FLT1 M799-D1165-X WT; His6 (N); made in house; host or cells: E. coli (PTP1B co-expressed)
T9 sequence (P17948 with tags, fused parts or gaps): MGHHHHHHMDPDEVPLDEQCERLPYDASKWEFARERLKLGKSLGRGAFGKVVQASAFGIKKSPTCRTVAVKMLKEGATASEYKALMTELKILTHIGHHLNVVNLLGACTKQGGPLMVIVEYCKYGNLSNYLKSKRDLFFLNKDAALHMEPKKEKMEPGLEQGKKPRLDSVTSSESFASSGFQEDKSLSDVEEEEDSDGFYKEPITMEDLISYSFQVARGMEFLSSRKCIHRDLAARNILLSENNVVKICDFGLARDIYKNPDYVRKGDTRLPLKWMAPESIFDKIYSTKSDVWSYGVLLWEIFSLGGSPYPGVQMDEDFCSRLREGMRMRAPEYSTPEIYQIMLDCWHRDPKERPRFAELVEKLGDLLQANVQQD

[11] = molecular target: T10, B-Raf (Homo sapiens, UniProt P15056); assay: AlphaScreen kinase assay, B-Raf; details: read-out: IC50, activity toward kinase B-Raf
T10 construct: purchased Upstate Biotechnology

[12] = molecular target: T11, c-Raf-1 (Homo sapiens, UniProt P04049); assay: AlphaScreen kinase assay, c-Raf-1; details: read-out: IC50, activity toward kinase c-Raf-1
T11 construct: purchased Upstate Biotechnology
T11 sequence (P04049 whole entry): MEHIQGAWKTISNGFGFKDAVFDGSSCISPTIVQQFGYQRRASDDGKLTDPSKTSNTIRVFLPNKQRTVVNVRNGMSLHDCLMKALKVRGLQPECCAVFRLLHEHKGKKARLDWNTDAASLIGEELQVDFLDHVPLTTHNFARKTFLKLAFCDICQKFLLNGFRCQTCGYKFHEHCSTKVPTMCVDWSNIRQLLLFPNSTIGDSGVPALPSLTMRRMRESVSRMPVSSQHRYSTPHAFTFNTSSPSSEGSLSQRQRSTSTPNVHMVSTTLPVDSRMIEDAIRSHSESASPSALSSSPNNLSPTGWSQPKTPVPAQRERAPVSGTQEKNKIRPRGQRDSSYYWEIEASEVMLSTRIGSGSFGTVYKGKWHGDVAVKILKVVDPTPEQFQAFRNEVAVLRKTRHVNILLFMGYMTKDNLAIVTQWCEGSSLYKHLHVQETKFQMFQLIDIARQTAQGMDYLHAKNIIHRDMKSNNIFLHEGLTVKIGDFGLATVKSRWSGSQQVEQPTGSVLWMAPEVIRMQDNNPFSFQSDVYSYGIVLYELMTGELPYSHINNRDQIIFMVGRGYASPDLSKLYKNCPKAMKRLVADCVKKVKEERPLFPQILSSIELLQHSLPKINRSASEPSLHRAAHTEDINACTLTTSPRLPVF

[13] = molecular target: T12, Jnk1 (Homo sapiens, UniProt P45983); assay: AlphaScreen kinase assay, Jnk1; details: read-out: IC50, activity toward kinase Jnk1
T12 construct: purchased Upstate Biotechnology
T12 sequence (P45983 whole entry): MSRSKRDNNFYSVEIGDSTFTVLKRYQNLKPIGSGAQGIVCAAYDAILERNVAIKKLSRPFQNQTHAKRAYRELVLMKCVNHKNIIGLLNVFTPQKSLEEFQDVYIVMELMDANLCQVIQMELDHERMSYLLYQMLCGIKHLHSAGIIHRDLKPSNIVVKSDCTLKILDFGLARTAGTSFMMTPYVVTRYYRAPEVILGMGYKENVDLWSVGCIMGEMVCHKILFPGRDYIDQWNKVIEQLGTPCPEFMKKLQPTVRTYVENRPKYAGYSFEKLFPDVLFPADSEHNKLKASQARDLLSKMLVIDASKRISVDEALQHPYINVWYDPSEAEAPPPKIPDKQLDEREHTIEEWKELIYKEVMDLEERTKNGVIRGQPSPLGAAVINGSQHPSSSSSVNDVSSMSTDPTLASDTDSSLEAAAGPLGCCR

[14] = molecular target: T13, Jnk2 (Homo sapiens, UniProt P45984); assay: AlphaScreen kinase assay, Jnk2; details: read-out: IC50, activity toward kinase Jnk2
T13 construct: purchased Roche Protein Expression Group (Indianapolis, IN)
Procedure, shortened: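 Inhibition reads as diminished acceptor emission, since unphosphorylated peptide fails to bridge antibody acceptor beads and streptavidin donor beads. Titration: eight points, 1:3 steps, stocks at 20 mM in DMSO.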

[15] = molecular target: T14, Ret (Homo sapiens, UniProt P07949); assay: AlphaScreen kinase assay, Ret; details: read-out: IC50, activity toward kinase Ret
T14 construct: P1378.pET-SF BI-PTP RET H661-R1012 HIS; made in house
T14 sequence (P07949 with tags, fused parts or gaps): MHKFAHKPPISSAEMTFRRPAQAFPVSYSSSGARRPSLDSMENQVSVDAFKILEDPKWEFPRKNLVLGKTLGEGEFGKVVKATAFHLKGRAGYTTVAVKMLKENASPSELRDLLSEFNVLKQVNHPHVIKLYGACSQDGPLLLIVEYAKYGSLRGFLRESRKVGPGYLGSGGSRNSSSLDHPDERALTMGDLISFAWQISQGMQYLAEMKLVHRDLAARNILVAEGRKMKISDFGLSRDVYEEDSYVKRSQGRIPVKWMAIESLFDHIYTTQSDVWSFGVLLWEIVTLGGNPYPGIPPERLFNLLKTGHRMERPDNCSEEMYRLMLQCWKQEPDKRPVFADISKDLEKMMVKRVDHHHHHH

[16] = molecular target: T15, Src (Homo sapiens, UniProt P12931); assay: AlphaScreen kinase assay, Src; details: read-out: IC50, activity toward kinase Src
T15 construct: P1144. pET-N6 BI-PTP SRC V86-L536-X; made in house
T15 sequence (P12931 with tags, fused parts or gaps): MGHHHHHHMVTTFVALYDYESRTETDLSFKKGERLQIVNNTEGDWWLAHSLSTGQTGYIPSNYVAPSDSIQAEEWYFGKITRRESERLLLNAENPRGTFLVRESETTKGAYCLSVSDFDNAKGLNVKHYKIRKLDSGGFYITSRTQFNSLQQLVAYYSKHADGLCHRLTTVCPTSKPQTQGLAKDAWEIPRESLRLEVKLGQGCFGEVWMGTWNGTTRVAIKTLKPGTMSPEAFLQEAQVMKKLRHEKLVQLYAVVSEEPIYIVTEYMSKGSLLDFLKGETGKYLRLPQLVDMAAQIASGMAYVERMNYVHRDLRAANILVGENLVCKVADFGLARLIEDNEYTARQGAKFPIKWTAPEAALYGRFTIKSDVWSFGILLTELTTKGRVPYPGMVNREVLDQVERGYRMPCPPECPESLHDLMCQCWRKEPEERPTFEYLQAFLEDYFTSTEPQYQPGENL

Measured: IC50

T2 sequence (P35968 20-1356): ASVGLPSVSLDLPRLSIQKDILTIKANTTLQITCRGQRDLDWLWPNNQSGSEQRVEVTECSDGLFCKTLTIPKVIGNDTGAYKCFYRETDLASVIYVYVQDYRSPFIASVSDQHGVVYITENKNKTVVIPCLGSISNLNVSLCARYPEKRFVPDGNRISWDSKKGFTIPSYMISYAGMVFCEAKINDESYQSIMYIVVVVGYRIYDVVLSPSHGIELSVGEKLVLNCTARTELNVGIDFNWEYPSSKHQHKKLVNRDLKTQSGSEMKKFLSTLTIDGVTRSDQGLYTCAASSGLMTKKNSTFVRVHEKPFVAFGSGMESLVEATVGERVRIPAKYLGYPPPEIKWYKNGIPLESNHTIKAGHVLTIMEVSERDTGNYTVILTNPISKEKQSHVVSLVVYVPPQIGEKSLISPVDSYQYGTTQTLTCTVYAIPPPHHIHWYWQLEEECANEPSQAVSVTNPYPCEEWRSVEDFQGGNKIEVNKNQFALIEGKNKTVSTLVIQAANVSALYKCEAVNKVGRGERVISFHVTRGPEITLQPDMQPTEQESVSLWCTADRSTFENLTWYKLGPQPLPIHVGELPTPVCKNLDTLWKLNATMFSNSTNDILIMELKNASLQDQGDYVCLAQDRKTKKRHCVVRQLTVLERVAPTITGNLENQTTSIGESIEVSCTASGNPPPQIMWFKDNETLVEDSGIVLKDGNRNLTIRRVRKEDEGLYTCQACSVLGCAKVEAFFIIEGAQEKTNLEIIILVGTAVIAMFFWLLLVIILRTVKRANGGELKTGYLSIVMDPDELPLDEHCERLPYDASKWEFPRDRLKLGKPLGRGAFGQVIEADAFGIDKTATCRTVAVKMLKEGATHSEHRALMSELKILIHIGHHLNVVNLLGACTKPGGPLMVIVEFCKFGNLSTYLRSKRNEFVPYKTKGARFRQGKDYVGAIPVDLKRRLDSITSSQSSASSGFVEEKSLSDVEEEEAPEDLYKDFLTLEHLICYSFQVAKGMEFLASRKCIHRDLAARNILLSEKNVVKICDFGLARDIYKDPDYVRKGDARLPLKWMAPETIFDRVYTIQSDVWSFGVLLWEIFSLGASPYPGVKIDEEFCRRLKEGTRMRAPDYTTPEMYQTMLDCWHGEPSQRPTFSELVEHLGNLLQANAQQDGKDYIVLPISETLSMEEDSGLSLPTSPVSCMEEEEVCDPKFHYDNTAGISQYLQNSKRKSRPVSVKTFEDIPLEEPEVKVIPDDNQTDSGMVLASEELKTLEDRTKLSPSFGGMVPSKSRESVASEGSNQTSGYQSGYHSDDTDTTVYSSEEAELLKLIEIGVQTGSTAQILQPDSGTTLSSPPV

c1cncc(-c2cnc3[nH]ccc3c2)c1 [Compound P-0176]
≤ 10 µM: [1] | [2] | [3] | [4] | [5]

O=C(c1c(F)cccc1F)c1c[nH]c2ncccc12 [Compound P-1685]
≤ 10 µM: [6] | [7] | [8] | [3] | [5]

Cc1[nH]c2ncccc2c1-c1cccc(F)c1 [Compound P-0986]
≤ 10 µM: [6] | [5]

COc1cc(OC)cc(C(=O)c2c[nH]c3ncc(-c4cccnc4)cc23)c1 [Compound P-1411, (3,5-Dimethoxy-phenyl)-(5-pyridin-3-yl-1H-pyrrolo[2,3-b]pyridin-3-yl)-methanone]
≤ 10 µM: [9] | [6] | [7] | [10] | [8] | [3] | [5]

CS(=O)(=O)Nc1ccc(Cl)c(C(=O)c2c[nH]c3ncc(-c4cccnc4)cc23)c1F [Compound P-0734, N-[4-Chloro-2-fluoro-3-(5-pyridin-3-yl-1H-pyrrolo[2,3-b]pyridine-3-carbonyl)-phenyl]-methanesulfonamide]
≤ 10 µM: [11] | [9] | [12] | [7] | [13] | [14] | [1] | [15] | [5]

c1cnc2[nH]cc(Sc3ccncc3)c2c1 [Compound P-0131]
≤ 10 µM: [2] | [4] | [5]

CCCS(=O)(=O)Nc1ccc(F)c(C(=O)c2c[nH]c3ncc(OCCOC)cc23)c1F [Compound P-1253, Propane-1-sulfonic acid {2,4-difluoro-3-[5-(2-methoxy-ethoxy)-1H-pyrrolo[2,3-b]pyridine-3-carbonyl]-phenyl}-amide]
not listed: [2] | [4] | [10] | [15]
≤ 10 µM: all other assays above

COc1cc(Cc2c[nH]c3ncccc23)cc(OC)c1 [Compound P-0391]
≤ 10 µM: [6] | [7] | [8] | [2] | [3] | [5]

CCC(C)NC(=O)Nc1ccc(F)c(C(=O)c2c[nH]c3ncc(-c4cccnc4)cc23)c1F (stereo not shown) [Compound P-1289, 1-sec-Butyl-3-[2,4-difluoro-3-(5-pyridin-3-yl-1H-pyrrolo[2,3-b]pyridine-3-carbonyl)-phenyl]-urea]
not listed: [2] | [4] | [14] | [15]
≤ 10 µM: all other assays above

COc1cccc(Cc2c[nH]c3ncc(-c4ccsc4)cc23)n1 [Compound P-0300]
≤ 10 µM: [1] | [3] | [4] | [5]

NC(=O)c1cccc(-c2cnc3[nH]cc(C(=O)c4ccccc4OCc4ccccc4)c3c2)c1 [Compound P-1383]
≤ 10 µM: [11] | [9] | [6] | [7] | [10] | [3] | [16] | [5]

COc1ccc(-c2cnc3[nH]cc(C#Cc4cccc(C(=O)O)c4)c3c2)cc1OC [Compound P-0174]
≤ 10 µM: [9] | [2] | [4] | [5]

CCCC(=O)Nc1ccc(F)c(C(=O)c2c[nH]c3ncc(-c4cccnc4)cc23)c1F [Compound P-1279]
not listed: [2] | [4] | [14] | [15] | [16]
≤ 10 µM: all other assays above

From patent US8415469B2, “Compounds and methods for kinase modulation, and indications therefor” (Plexxikon Inc., priority 2005, dated 2013)
